Laboratory results taken from patent US12171854B2, “Heterocyclic-dithiol click chemistry” (Northeastern University, priority 2017, dated 2024).
“And” between values parts separate entries of the source, which are not always exact repeats. Equal values may be shown once. “Also recorded” adds a separate entry of the source.

Experiments:
WT SOD1 [1] = biological target: T1, WT SOD1 (Homo sapiens, UniProt P00441); assay: SOD1 cross-linking kinetics, mass spectrometry assay (percent covalent dimer); assay type: biochemical; conditions: for % of SOD1 cross-linked after 10 min of incubation: 50 μM SOD1, 1000 μM compound (20× excess), pH 7.4, 10 min; for binding to single Cys residues (free Cys111 and Cys6) of SOD1: any sample; for cross-linking of SOD1, result in words (FIG. 13): 1:1 ratio of SOD1 dimer:cross-linker
T1 construct: made in house; host or cells: EGy118ΔSOD1 yeast, vector YEp-351
Excerpt: The reaction was monitored using a mass spectrometry (MS) assay that uses a combination of increased voltage within the region of hypersonic gas expansion and brief treatment with 10% formic acid to create exclusively monomeric SOD1 or covalently cross-linked SOD1 dimer. Formic acid also quenches the reaction, transforming any reactive thiolates to unreactive thiols. As a result, if no reaction occurs, only apo SOD1 monomer is detected (FIG. 2, top). […] Given sufficient time for thiolates to be oxidized to sulfenic acid (which occurs on the order of days-weeks), even 1,2-dithiane was expected to cross-link SOD1. After 72 h of incubation with 1,2-dithiane, 11% of SOD1 had formed the expected covalent dimer (FIG. 5).
Human WT SOD1 was expressed in yeast. […] Dilution in HPLC-Grade water to 1 mM cyclic disulfide was performed prior to experimentation. As a negative control, 50 μM human WT SOD1 was incubated at 37° C. with 4% HPLC-grade methanol. At every time point, 1 μL of each sample was removed from their respective reaction vial for analysis. Samples were briefly (˜30 seconds) incubated at room temperature with 10% formic acid to remove metals from SOD1 and quench cross-linking reaction prior to mass spectrometry analysis. Samples were then diluted to 1 μM SOD1 in 50:50 acetonitrile:water, 0.1% FA and analyzed by direct infusion into a Bruker SolariX XR FT-ICR mass spectrometer. The percent dimer formation was calculated by comparing the relative dimer (31,808 Da) and monomer (15,844 Da) MaxEnt deconvoluted peak heights (Dimer/(Dimer+Monomer)). Identical methods were used in the kinetics of α-lipoic acid and β-lipoic acid. Kinetics of 1,2-dithiepane vs. 1,2-dithiepane-1-oxide were performed at a 1:1 ratio of SOD1 dimer:cross-linker.

C111S SOD1 = biological target: T2, C111S SOD1 (Homo sapiens, UniProt P00441, C112S); assay: Localization of cross-link using point mutated C111S SOD1 (LC-MS); assay type: biochemical; conditions: 10 μM SOD1, 100 μM compound, overnight, room temperature
T2 construct: made in house; host or cells: EGy118ΔSOD1 yeast, vector YEp-351
Experimental: Aliquots from each of the SOD1 incubations were individually diluted ten-fold with H2O containing 0.1% formic acid and analyzed using reversed phase C18 LC-MS on a Bruker HCT Ultra ion trap. The resulting data were processed using DataAnalysis 3.4 (Bruker Daltonics). Mass spectra were averaged across the retention times corresponding to when SOD1 eluted and were deconvoluted to determine the molecular weight of the uncharged species.

WT SOD1 [2] = biological target: T1, WT SOD1; assay: In vitro glutathione competition assay; assay type: biochemical
Experimental: Purified WT SOD1 was diluted to 10 μM in 10 mM ammonium acetate, pH 7.4. […] Samples were briefly (30 seconds) incubated at room temperature with 10% formic acid to remove metals from SOD1 prior to mass spectrometry analysis. Samples were then diluted to 1 μM SOD1 in 50:50 acetonitrile:water, 0.1% FA and analyzed by direct infusion into a Bruker Solarix XR FT-ICR mass spectrometer. The percent dimer formation was calculated by comparing the relative dimer (31,808 Da) and monomer (15,844 Da) MaxEnt deconvoluted peak heights (Dimer/(Dimer+Monomer))

WT SOD1 [3] = biological target: T1, WT SOD1; assay: In vitro DTT competition assay; assay type: biochemical; conditions: 1:1 cross-linker:DTT (equimolar), 24 h, 37° C.
Experimental: Purified WT SOD1 was diluted to 50 μM in 10 mM ammonium acetate, pH 7.4. […] DTT solutions were made in 100% HPLC grade H2O. DTT solution concentrations were 1 mM, 2 mM and 4 mM. Samples were left to incubate at 37° C. for 24 h. Samples were then diluted to 1 μM SOD1 in 50:50 acetonitrile:water, 0.1% FA and analyzed by direct infusion into a Bruker Solarix XR FT-ICR mass spectrometer

SOD1 in Hep G2 cells = biological target: T3, SOD1 in Hep G2 cells (Homo sapiens, UniProt P00441); assay: SOD1 cross-linking in Hep G2 cells, western blot; assay type: cell-based; conditions: for cross-linking of SOD1 in cells, result in words: Hep G2 cells, increasing concentrations, compared with α-lipoic acid
T3 construct: endogenous in cells; host or cells: Hep G2
Experimental: Hep G2 cells were cultures in DMEM with 10% fetal bovine serum and penicillin/streptomycin in 96 well Costar® Corning CellBIND plate with 5% CO2 at 37° C. The cells were cultured to monolayer confluency. […] Stocks were diluted twenty-fold in 1×PBS (final DMSO 5%). Cells were treated with 200 uL of compound and incubated for 30 minutes at 37° C. 5% CO2. Cells were washed with 1×PBS and 20 μL of 6× nonreducing sample buffer was added to each well. The 96 well plate was heated to 90° C. for 10 minutes. Samplers were spun at 14000 RPM for 5 minutes in a Beckman Coulter Microfuge®18 centrifuge. Samples were run using a Bio Rad Mini-Protean electrophoresis chamber on 12% precast TGX polyacrylamide gels at 150V. After separation was complete, gels were extracted from the cassettes and incubated in an in-house transfer buffer for 10 minutes are 90° C. to ensure thorough transfer of protein bands and thorough binding of antibody (25 mM Tris, 192 mM glycine, 10 mM 2-mercaptoethanol, 0.1% SDS). Transfer was performed with a Bio Rad Trans-blot turbo transfer system using a trans-clot turbo transfer pack. Membranes were dried, blocked with 5% milk for 2 h at room temperature. Membranes were then probed with primary antibody, anti-SOD1 antibody SOD100 overnight at 4° C. Membranes are incubated with HRP-labeled secondary antibodies and visualized using ECL Western Blotting Substrate and imaged using the ChemiDoc MP.

SOD1 in HeLa cells = biological target: T4, SOD1 in HeLa cells (Homo sapiens, UniProt P00441); assay: SOD1 cross-linking in HeLa cells, western blot; assay type: cell-based; conditions: EC50 for cross-linking of SOD1, HeLa cells
T4 construct: endogenous in cells; host or cells: HeLa
Experimental: HeLa cells were cultured in DMEM with 10% fetal bovine serum and penicillin/streptomycin in 24 well Costar® Corning CellBIND plate with 5% CO2 at 37° C. The cells were cultured to monolayer confluency. […] The 100 mM solution diluted to various concentrations with 1×PBS solution. 1 mL of solutions was added to the HeLa cells in the 24 well plate. […] Cells were washed 2× with 1 mL PBS. After removing the second PBS wash, the cells were then treated with 6× non-reducing SDS sample buffer and collected. The collected cell lysate was divided into two parts. One half was treated with 5% β-ME, to remove bound cyclic disulfides, as negative controls. The other half was treated with equal amount of milliQ water. All the cell lysate samples were then heated at 80° C. for 10 minutes in an Eppendorf Thermomixer. The samples were spun at 14000 rpm for 5 minutes in Beckman Coulter Microfuge centrifuge. HeLa cell extracts were separated on 12% SDS-polyacrylamide TrisHCl gels run at 80 V at room temperature. Proteins were transferred to nitrocellulose membranes for Western blotting. Monomer and covalently-linked dimer SOD1 were detected using the rabbit polyclonal anti-SOD1 antibody SOD100. Membranes are incubated with HRP-labeled secondary antibodies and visualized using ECL Western Blotting Substrate and imaged using the ChemiDoc MP.

SH-SY5Y cells = assay type: cell-based; conditions: 24 h
Experimental: Human immortalized neuroblastoma cells (SH-SY5Y) were purchased from ATCC (Manassas, Virginia, USA). Cells were grown in Eagle's Minimum Essential Medium (EMEM) supplemented with 10% fetal bovine serum at 37° C. and 5% CO2 to >70% confluency. […] Following incubation with 1,2-dithaine-1-oxide, 22 μL of PrestoBlue® was added to each well and allowed to incubate for 10 min at 37° C. Excitation/emission was measured at 560/590 (in nm) using an Infinite® 200 plate reader (Tecan, Mannedorf, Switzerland). Cell viability was quantified relative to untreated cells.

[4] = with reduced glutathione; cited from earlier work
[5] = 50 μM SOD1, 20× excess compound
[6] = 10× compound and 100× reduced glutathione

T1 sequence (P00441 2-154 limits assumed): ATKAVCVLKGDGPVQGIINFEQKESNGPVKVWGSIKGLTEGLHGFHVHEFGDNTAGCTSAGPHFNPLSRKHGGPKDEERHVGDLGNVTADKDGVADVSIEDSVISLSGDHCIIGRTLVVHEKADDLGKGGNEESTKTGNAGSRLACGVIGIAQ
T3 sequence (P00441 2-154 limits assumed): as above
T4 sequence (P00441 2-154 limits assumed): as above
T2 sequence (P00441 2-154 C112S limits assumed): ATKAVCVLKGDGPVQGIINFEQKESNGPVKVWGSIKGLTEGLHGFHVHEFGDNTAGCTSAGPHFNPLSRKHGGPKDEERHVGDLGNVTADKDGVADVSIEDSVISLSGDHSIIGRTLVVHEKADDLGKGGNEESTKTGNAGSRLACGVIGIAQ

Molecule: [O-][S+]1CCCCS1 (stereo not shown) [1,2-dithiane-1-oxide]
- % of SOD1 cross-linked after 10 min of incubation (WT SOD1 [1]; 37° C.): 95%
- cross-linking of SOD1, result in words (WT SOD1 [1]; [5]): rapid and complete dithiolate cross-linking
- binding to single Cys residues (free Cys111 and Cys6) of SOD1 (WT SOD1 [1]): no binding to single Cys residues
- overall second order rate constant of cross-linking product formation (WT SOD1 [1]; multi-concentration kinetics, protocol of Singh et al.): 250 M⁻¹ s⁻¹
- covalent dimer formation with C111S SOD1 (C111S SOD1): No cross-linking was observed; also recorded: no covalent dimer formation
- cross-linking of SOD1 in the presence of glutathione, result in words (WT SOD1 [2]; 10:1 ratio of glutathione:compound): proceeded to completion; also recorded: can efficiently cross-link SOD1
- cross-linking yield in the presence of glutathione (WT SOD1 [2]; [6]): 100%
- rate of cross-linking in the presence of glutathione (WT SOD1 [2]; [6]): decreased
- cross-linking of SOD1 in the presence of DTT, result in words (WT SOD1 [3]): proceeded to completion; also recorded: ability to cross-link the thiol pair of SOD1
- EC50 (SOD1 in Hep G2 cells; EC50 for cross-linking of SOD1, Hep G2 cells, 30 min incubation, western blot): ~5 µM and 1 to 5 µM
- EC50 (SOD1 in HeLa cells): ~5 µM and 1 to 5 µM
- concentration at which cell viability is equivalent to untreated cells, relative to EC50 (SH-SY5Y cells): 50 fold

Molecule: C1CCSSC1 [1,2-dithiane]
- % of SOD1 cross-linked after 10 min of incubation (WT SOD1 [1]; 37° C.): 0%
- cross-linking of SOD1, result in words (WT SOD1 [1]; [5]): slow cross-link formation
- % of SOD1 forming covalent dimer after three days (72 h) (WT SOD1 [1]; 50 μM SOD1, 20× excess compound, 37° C., 72 h): 11%
- binding to single Cys residues (free Cys111 and Cys6) of SOD1 (WT SOD1 [1]): no binding to single Cys residues

Molecule: [O-][S+]1CCCCCS1 (stereo not shown) [1,2-dithiepane-1-oxide]
- cross-linking of SOD1, result in words (FIG. 13) (WT SOD1 [1]): rapid and complete cross-link of SOD1

Molecule: C1CCSSCC1 [1,2-dithiepane]
- cross-linking of SOD1, result in words (FIG. 13) (WT SOD1 [1]): does not

Molecule: [O-][S+]1CCCCCCS1 (stereo not shown) [1,2-dithiocane-1-oxide]
- cross-linking of SOD1, result in words (FIG. 15) (WT SOD1 [1]): rapid and complete cross-link of SOD1

Molecule: C1CCCSSCC1 [1,2-dithiocane]
- cross-linking of SOD1, result in words (FIG. 15) (WT SOD1 [1]): does not

Molecule: OC1CSSCC1O (stereo not shown) [oxidized DTT]
- extrapolated half-life of thiol-disulfide exchange [4]: > 3.33 h

Molecule: β-lipoic acid
- rate and extent of covalent cross-linking of SOD1 versus α-lipoic acid, in words (WT SOD1 [1]; mass spectrometry assay): Both rate and extent of covalent cross-linking of SOD1 is increased
- more SOD1 cross-linked in vitro compared to ALA (WT SOD1 [1]; mass spectrometry assay, compared to ALA): 30%
- cross-linking of SOD1 in cells, result in words (SOD1 in Hep G2 cells): cross-links SOD1 in Hep G2 cells, and does so more efficiently than the cyclic disulfide, α-lipoic acid
- cross-linking of SOD1 in cells, result in words (SOD1 in Hep G2 cells; listed as BLA): cross-linked SOD1 in cells
